Data on one compound can be found in paper PMC8026324, “In Vitro Antiplasmodial, Heme Polymerization, and Cytotoxicity of Hydroxyxanthone Derivatives” (Journal of Tropical Medicine, 2021).

The subject of one assay is Vero cells. In words: In vitro cytotoxicity test, MTT assay on Vero cell line. The assay is classed as cell-based. Particulars: for IC50: MTT assay. As for the experimental part: The in vitro cytotoxicity test was conducted using the 3-(4,5-dimethylthiazol-2-yl)2,5-diphenyltetrazolium bromide (MTT) assay method on Vero cell line culture using the Anderson et al.'s modified method.
The cell was removed from the cryo medium. Then, the cell was thawed at 37°C. The liquid cell was subsequently transferred to the tube and a culture medium was added to a volume of 10 mL. Then, the suspension was centrifuged for 15 minutes so that it would form cell pellets. The supernatant was removed and 1 mL of culture medium was added to the cell pellets. Finally, the suspension was transferred to the Petri dish and incubated in the incubator with 5% of CO2 at 37°C.
The medium of Vero cell culture was removed, and then the cell was washed using a PBS solution with a volume of PBS ± 1/2 of the initial medium volume. This step was done twice and 1 mL of trypsin 0.25% was added. Subsequently, the cell was incubated in the CO2 incubator at 37°C for 3 minutes. Then, the cell was resuspended using 2 mL of culture medium and PBS solution was added up to 10 mL. The suspension was centrifuged for 15 minutes so that it formed pellets. Pellets were added with 1 mL of culture medium and resuspended. Take 10 μL of the cell suspension and density of cells was calculated.
Then, the cell was added with culture medium to 10 mL. A total of 100 μL of such suspensions was transferred into each well of the 96-well microplate, but three of the wells were emptied as medium controls. Subsequently, the microplate was incubated in a 5% CO2 incubator at 37°C.
Each hydroxyxanthone derivative compound was dissolved in DMSO, and a variety of concentrations were prepared in the medium. Each concentration of the testing compound was added into the 96-well microplate triplicately. Cell control and medium control were not given a testing compound solution. The medium control remained blank, while the cell control contained culture medium only. […] Then, the cell was incubated in a 5% CO2 incubator at 37°C for 24 hours.
After the cell was incubated for 24 hours, the medium was discarded and washed with PBS. Then, each well was added with 100 μL of 5 mg/mL of MTT solution. The 96-well microplate was incubated again in the incubator of CO2 at 37°C for 4 hours. Then, 100 μL of 10% of SDS in 0.01 MHCl was added. The cells were placed in a dark room at room temperature for 24 hours.
The absorbance was measured using the enzyme-linked immunosorbent assay (ELISA) reader at 595 nm wavelength. The cytotoxicity test on the Vero cells was done by calculating the percentage of Vero cell inhibition of the absorption value of the test compound, cell control, and medium control. The cytotoxic effect was expressed as IC50. The IC50 value was obtained from the probit analysis by using SPSS software (IBM Corp., Chicago). The degree of selectivity was expressed as a selectivity index. The selectivity index was obtained from the ratio between the IC50 cytotoxic effect on Vero cells and IC50 antiplasmodial activity on Plasmodium. A compound is said to be safe if the value of the selectivity index is >10 [20].
(In general: Tetrazolium dyes change colour on reduction, which living cells bring about.)

Assay [1] relates to Plasmodium falciparum 3D-7. In words: Flow cytometry method (SYBR green I / CD235A-PE). The assay is classed as cell-based. Particulars: 72 hours incubation. The method, then: The Plasmodium falciparum strains of 3D-7 were used in this method. The plasmodium synchronized to obtain the ring stage by adding 5% of D-sorbitol. Plasmodium with 1% parasitemia was cultured in a 96-well microplate. The testing compounds were added in duplicate and incubated at 37°C for 72 hours. The samples were centrifuged with a speed of 1000 rpm for 10 minutes and washed twice in 100 μL of phosphate-buffered saline (PBS). Samples were incubated with 50 μL of 1 : 1000 SYBR green I and 20μL of CD235A-PE for 15 minutes at room temperature. Cells were washed and resuspended in PBS. Data were obtained using a FACSCalibur with the acquisition of 1,00,000 events per sample. Initial gating was done with uninfected and unstained erythrocytes to account for erythrocyte autofluorescence. The control plasmodium-infected erythrocyte was referred as 100% growth to calculate the percentage of growth inhibition after treated with testing compound.
Background: In flow cytometry, cells or beads pass a laser one at a time.

Structures are written as SMILES.

One may read the IC50 as the midpoint of a concentration-inhibition curve. High values mean weaker potency, low ones greater potency. In general, inhibition refers to the drop in the measured response relative to a control, in per cent. Consider `O=c1c2c(O)cccc2oc2cc(O)cc(O)c12` [HX1, 1,6,8-trihydroxyxanthone], for which the IC50 with Vero cells (24 hours incubation) was 3.39 ± 0.435 mM; in the assay on Vero cells (Chlorocebus sabaeus, Vero, 24 h, 24 hours incubation) it was 3.28 mM; in the assay on Vero cells (Chlorocebus sabaeus, Vero), 802 µg/mL. For the same compound, the inhibition at 255.94 µM with Vero cells (Chlorocebus sabaeus, Vero, 24 h, 255.94 μM, read-out: Vero cell growth inhibition after 24 hours incubation) was -50.3 ± 17.2%. For the same compound, in the assay with Vero cells (Chlorocebus sabaeus, Vero, 24 h, 511.88 μM, read-out: Vero cell growth inhibition after 24 hours incubation), the inhibition at 511.88 µM is -4.13 ± 8.21%. For the same compound, the inhibition at 1023.75 µM in the assay on Vero cells (Chlorocebus sabaeus, Vero, 24 h, 1023.75 μM, read-out: Vero cell growth inhibition after 24 hours incubation) turned out to be 15.9 ± 8.24%. In addition, the inhibition at 2047.5 µM in the assay on Vero cells (Chlorocebus sabaeus, Vero, 24 h, 2047.50 μM, read-out: Vero cell growth inhibition after 24 hours incubation) worked out at 28 ± 5.69%. The inhibition at 4095 µM in the assay on Vero cells (Chlorocebus sabaeus, Vero, 24 h, 4095.00 μM, read-out: Vero cell growth inhibition after 24 hours incubation) stood at 45.9 ± 5.51%. Also, the inhibition at 8190.01 µM with Vero cells (Chlorocebus sabaeus, Vero, 24 h, 8190.01 μM, read-out: Vero cell growth inhibition after 24 hours incubation) was 89.4 ± 1.9%. In addition, the “Selectivity index (over strains 3D-7 and FCR-3)” value in the assay with Vero cells (cytotoxicity/antiplasmodium ratio on P. falciparum 3D-7 and FCR-3) is given as “more than 10”. Besides, the “Selectivity index 3D-7” value with Vero cells (ratio IC50 on Vero cell/IC50 on P. falciparum 3D-7) came to 556.54. Further, the “Selectivity index FCR-3” value in the assay with Vero cells (ratio IC50 on Vero cell/IC50 on P. falciparum FCR-3) was found to be 502.20. Besides, in assay [1] (102.38 μM), the “inhibition activity of P. falciparum 3D-7 growth (flow cytometry)” value is “showed inhibition activity”. The inhibition at 204.75 µM in assay [1] (Plasmodium falciparum, 204.75 μM, read-out: inhibition activity of P. falciparum 3D-7 growth (flow cytometry)) is more than 90%.
